The source of these data is patent publication US20240208898A1, “ENAMINE N-OXIDES: SYNTHESIS AND APPLICATION TO HYPOXIA-RESPONSIVE PRODRUGS AND IMAGING AGENTS” (DANA-FARBER CANCER INSTITUTE, INC., priority 2021, published 2024).

Type in all cases: cell-based
One data set has as its system A431 cells. Briefly: Staurosporine release by A431 cells. The settings on record: 7.5×10^6 A431 cells, 100 μM compound, serum free RPMI, HPLC. The protocol: Sterilized 2 mL HPLC vials were each charged with a suspension of 7.5×10^6 cells in RPMI (1 mL) and sealed with a cap containing a septum. The vials were charged with only RPMI (1 mL) in the no cell controls. A stock solution of staurosporine enamine N-oxide 37 (10 μL, 10 mM in ethanol; 100 μM final concentration) was then added to each vial. Septa were pierced with an open 22-gauge needle for normoxic conditions. Hypoxic conditions were maintained using nitrogen lines connected to a vacuum gas manifold. The vials were maintained at 37° C. in a water bath and shaken every 15 minutes. At different time points (0, 1, 2, 4, and 8 hours), an aliquot of the cell suspension (100 μL) was removed from each vial and immediately added to acetonitrile (100 μL) containing p-nitrophenol (10 μM) as an internal standard. Quenched samples were then cooled to −20° C. for 1 hour and centrifuged at 10,000×g for 5 minutes at 4° C. The supernatant was collected and analyzed by HPLC (C18 column, 4.6×250 mm, 5 μm particle size, 1 mL/minute flow rate, eluent: gradient 0→20% MeCN/H2O+0.1% TFA (1 minute), gradient 20→40% MeCN/H2O+0.1% TFA (7 minutes), gradient 40→100% MeCN/H2O+0.1% TFA (3 minutes)). Staurosporine was quantified using its absorbance at 280 nm.

In a further data set the test system is A431 or H460 cells. Briefly: Staurosporine enamine N-oxide cell viability studies (MTT). As to conditions: compared with AQ4N. The protocol: A431 or H460 cells were seeded at a density of 12,000-13,000 cells per well in media [100 μL, RPMI supplemented with 5% heat-inactivated human serum (Sigma), penicillin (100 units/mL), and streptomycin (0.1 mg/mL)] in clear 96-well plates. PBS (100 μL) was added to the edge wells. The cells were incubated at 37° C. under ambient atmosphere with 5% CO2. After 24 hours, the media was aspirated and replaced with media [50 μL, RPMI supplemented with 5% HS, penicillin (100 units/mL), and streptomycin (0.1 mg/mL)] containing the staurosporine derivative of interest. For A431 cells, staurosporine or staurosporine derivative treatment concentrations started at 50 μM and were serially diluted 4-fold across nine wells. For H460 cells, staurosporine or staurosporine derivative treatment concentrations started at 100 μM and were serially diluted 4-fold across nine wells. […] After 48 hours, the media was aspirated, the wells were washed once with PBS (130 μL), and the cell viability was determined using the MTT assay. […] The absorbance at 570 nm was measured using a microplate reader (Clariostar Plus, BMG Labtech).
These studies were performed as previously reported (Manley et al., J. Pharmacol. Exp. Ther. 344:368-377 (2013)). […] After 72 hours, cell viability was determined using the MTT assay. […] The absorbance at 570 nm was then measured using a microplate reader (Clariostar Plus, BMG Labtech).

The next data set concerns BxPC-3 cells. Nature of the data set: Western blot of pimonidazole-labeled cells. The settings on record: 48 h, 10 μM, printed 'until after 1% pO2'. The protocol: Cells were seeded at a density of 200,000 cells per well in media [2 mL, RPMI supplemented with 5% heat-inactivated human serum (Sigma), penicillin (100 units/mL), and streptomycin (0.1 mg/mL)] in 6-well plates. Cells were incubated at 37° C. under ambient atmosphere with 5% CO2. After 24 hours, the media was aspirated and replaced with media [1 mL, RPMI supplemented with 5% heat-inactivated HS, penicillin (100 units/mL), and streptomycin (0.1 mg/mL)] containing pimonidazole (1 μL, 10 mM in water; 10 μM final concentration). Plates were then incubated at 37° C. under ambient (20% pO2) or oxygenated conditions (5%, 1%, or 0.1% pO2) with 5% CO2 for 48 hours. The oxygenated conditions were maintained using a hypoxia chamber (ProOx C21, Biospherix) in a cell culture incubator. After 48 hours, the media was aspirated, and the cells were washed with PBS (1 mL). PBS (1 mL) was then added to each well and the cells were scraped off with a cell scraper. […] The protein concentration was then determined by BCA assay following the manufacturer's protocol (Pierce). […] The dried pellet was then resuspended in an SDS solution (50 μL, 1% SDS in 50 mM Tris, pH 8.0), and the protein concentration was determined by BCA assay. […] Blots were imaged using a fluorescence scanner (Odyssey CLx, LI-COR Biosciences) and quantified by ImageJ.

For the compound `CC[N+]([O-])(/C=C/COC(=O)N1Cc2c(c3c4ccccc4n4c3c3c2c2ccccc2n3[C@@]2(C)O[C@@H]4C[C@@H](NC)[C@H]2OC)C1=O)CC` [compound 37, N,N-diethyl enamine N-oxide staurosporine], the “rate of conversion to staurosporine under hypoxic conditions relative to normoxic” value in the data set on A431 cells is given as ~4 fold. The “hypoxic to normoxic cytotoxicity ratios (HCR)” value in the data set on A431 or H460 cells was “compare favorably with and are complementary to those of AQ4N”.

`O=[N+]([O-])c1nccn1CC(O)CN1CCCCC1` (stereo not drawn) [Pimonidazole]: the “oxygen tension at which apparent half maximal labeling capacity (0.1% pO2) is reached” value in the data set on BxPC-3 cells is listed as < 1 % pO2.
